Laboratory results reported in ChEMBL document CHEMBL4406798, “A novel finding of nalbuphine-6-glucuronide, an active opiate metabolite, possessing potent antinociceptive effects: Synthesis and biological evaluation” (2019).

Tests used:
[1] = test system: Rattus norvegicus; assay: Antinociceptive activity in Sprague-Dawley rat model of thermal-induced nociception assessed as reduction in tail-flick response by measuring AUC (0 to t) of tail flick test at 50 mg/kg, ip measured over 2.5 hrs by cold-ethanol tail-flick test; assay type: functional, organism-based; set-up: time < 2.5 hr, dose 50 mg/kg
[2] = test system: Rattus norvegicus; assay: Antinociceptive activity in Sprague-Dawley rat model of paw mechanical allodynia assessed as reduction in paw pressure by measuring AUC (0 to t) of paw pressure test at 50 mg/kg, ip by Randall-Selitto test; assay type: functional, organism-based
[3] = test system: Rattus norvegicus; assay: Antinociceptive activity in Sprague-Dawley rat model of paw mechanical allodynia assessed as reduction in paw pressure by measuring AUC (0 to t) of paw pressure test at 1 mg/kg administered as intra-cisternal injection by Randall-Selitto test; assay type: functional, organism-based
[4] = test system: Rattus norvegicus; assay: Antinociceptive activity in Sprague-Dawley rat model of thermal-induced nociception assessed as duration above 50% maximum possible analgesia at 1 mg/kg administered as intra-cisternal injection measured over 2.5 hrs by cold-ethanol tail-flick test; assay type: functional
[5] = test system: Rattus norvegicus; assay: Antinociceptive activity in Sprague-Dawley rat model of thermal-induced nociception assessed as maximum possible analgesia at 1 mg/kg administered as intra-cisternal injection measured over 2.5 hrs by cold-ethanol tail-flick test relative to control; assay type: functional
[6] = test system: Rattus norvegicus; assay: Antinociceptive activity in Sprague-Dawley rat model of paw mechanical allodynia assessed as duration above 50% maximum possible analgesia at 1 mg/kg administered as intra-cisternal injection by Randall-Selitto test; assay type: functional
[7] = test system: Rattus norvegicus; assay: Antinociceptive activity in Sprague-Dawley rat model of thermal-induced nociception assessed as maximum possible analgesia at 50 mg/kg, ip measured over 2.5 hrs by cold-ethanol tail-flick test relative to control; assay type: functional
[8] = test system: Rattus norvegicus; assay: Antinociceptive activity in Sprague-Dawley rat model of paw mechanical allodynia assessed as maximum possible analgesia at 1 mg/kg administered as intra-cisternal injection by Randall-Selitto test relative to control; assay type: functional
[9] = test system: Rattus norvegicus; assay: Antinociceptive activity in Sprague-Dawley rat model of paw mechanical allodynia assessed as maximum possible analgesia at 50 mg/kg, ip by Randall-Selitto test relative to control; assay type: functional
[10] = test system: Rattus norvegicus; assay: Antinociceptive activity in Sprague-Dawley rat model of thermal-induced nociception assessed as duration above 50% maximum possible analgesia at 50 mg/kg, ip measured over 2.5 hrs by cold-ethanol tail-flick test; assay type: functional
[11] = test system: Rattus norvegicus; assay: Antinociceptive activity in Sprague-Dawley rat model of paw mechanical allodynia assessed as duration above 50% maximum possible analgesia at 50 mg/kg, ip by Randall-Selitto test; assay type: functional
[12] = test system: Rattus norvegicus; assay: Antinociceptive activity in Sprague-Dawley rat model of thermal-induced nociception assessed as reduction in tail-flick response by measuring AUC (0 to t) of tail flick test at 1 mg/kg administered as intra-cisternal injection measured over 2.5 hrs by cold-ethanol tail-flick test; assay type: functional, organism-based; set-up: dose 1 mg/kg, time < 2.5 hr
[13] = species: Rattus norvegicus; assay: Ratio of AUC for test compound to AUC for nalbuphine for antinociceptive activity in Sprague-Dawley rat model by Randall-Selitto test; assay type: functional
[14] = species: Rattus norvegicus; assay: Ratio of AUC for test compound to AUC for nalbuphine for antinociceptive activity in Sprague-Dawley rat model by cold-ethanol tail-flick test; assay type: functional

For `Oc1ccc2c3c1O[C@H]1[C@@H](O)CC[C@@]4(O)[C@@H](C2)N(CC2CCC2)CC[C@]314` [NALBUPHINE], the AUC [1] was 16.9 hr.sec, the AUC [2] was 169 g·h and the AUC [3] was 176 g·h. It also gave a Time [4] of 0.07 h, an Activity [5] of 38.4% and a Time [6] of 0.13 h. For the same compound, the Activity [7] was 43.6%, the Activity [8] was 48% and the Activity [9] was 37.9%. It also gave a Time [10] of 0.15 h, a Time [11] of 0.1 h and an AUC [12] of 11.3 hr.sec.
For `O=C(O)[C@H]1O[C@@H](Oc2ccc3c4c2O[C@H]2[C@@H](O)CC[C@@]5(O)[C@@H](C3)N(CC3CCC3)CC[C@]425)[C@H](O)[C@@H](O)[C@@H]1O`, the AUC [1] was 5.8 hr.sec, the AUC [2] was 73.4 g·h and the AUC [3] was 23.5 g·h. For the same compound, the Time [4] was 1.36 h, the Activity [5] was 22.3% and the Activity [7] was 19.3%. The Activity [8] was 7.3%, the Activity [9] was 17.7% and the AUC [12] was 5.4 hr.sec.
For `O=C(O)[C@H]1O[C@@H](O[C@H]2CC[C@@]3(O)[C@H]4Cc5ccc(O)c6c5[C@@]3(CCN4CC3CCC3)[C@H]2O6)[C@H](O)[C@@H](O)[C@@H]1O`, the Ratio [13] was 2.8, the AUC [1] was 5.4 hr.sec and the AUC [2] was 158 g·h. The AUC [3] was 510 g·h, the Ratio [14] was 3.5 and the Activity [5] was 96.5%. It also gave a Time [6] of 91 h, an Activity [7] of 22.7% and an Activity [8] of 95.1%. It also gave an Activity [9] of 29.6% and an AUC [12] of 40.3 hr.sec.
